# Data taken from US10507248B2, “Hydrophobic core carrier compositions for delivery of therapeutic agents, methods of making and using the same” (PharmaIn Corporation, priority 2005, dated 2019).
# What was measured:
# [1] = native peptides; cited from earlier work
# [2] = biological target: DPP-8 (Homo sapiens, UniProt Q6V1X1); details: concentrations approximating those from therapeutic doses; cited from earlier work
# [3] = biological target: DPP-9 (Homo sapiens, UniProt Q86TI2); details: concentrations approximating those from therapeutic doses; cited from earlier work
# DPP-9, sequence (Q86TI2 whole entry): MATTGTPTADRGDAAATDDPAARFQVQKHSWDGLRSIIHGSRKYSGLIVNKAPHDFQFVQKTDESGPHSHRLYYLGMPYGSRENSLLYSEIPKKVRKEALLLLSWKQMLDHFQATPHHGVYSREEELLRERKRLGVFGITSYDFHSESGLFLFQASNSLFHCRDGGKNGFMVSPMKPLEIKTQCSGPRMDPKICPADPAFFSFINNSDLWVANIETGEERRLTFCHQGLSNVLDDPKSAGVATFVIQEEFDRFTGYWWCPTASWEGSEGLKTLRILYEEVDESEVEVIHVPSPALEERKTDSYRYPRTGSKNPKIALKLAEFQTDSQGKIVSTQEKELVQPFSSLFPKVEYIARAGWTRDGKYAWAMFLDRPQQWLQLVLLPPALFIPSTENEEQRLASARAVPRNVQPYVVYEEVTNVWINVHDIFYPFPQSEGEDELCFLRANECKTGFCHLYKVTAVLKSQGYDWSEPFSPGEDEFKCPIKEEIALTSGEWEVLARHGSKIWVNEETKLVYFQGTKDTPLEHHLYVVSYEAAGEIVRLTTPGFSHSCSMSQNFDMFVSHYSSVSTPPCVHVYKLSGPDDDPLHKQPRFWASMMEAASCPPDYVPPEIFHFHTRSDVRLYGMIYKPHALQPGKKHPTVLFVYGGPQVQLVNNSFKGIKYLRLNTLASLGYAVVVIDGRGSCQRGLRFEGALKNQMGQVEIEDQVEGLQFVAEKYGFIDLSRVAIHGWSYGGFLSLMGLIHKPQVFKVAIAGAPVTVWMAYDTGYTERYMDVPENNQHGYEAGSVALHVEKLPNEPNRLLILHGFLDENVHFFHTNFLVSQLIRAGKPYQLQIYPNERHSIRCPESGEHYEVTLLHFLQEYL
# [4] = in vivo; cited from earlier work
# [5] = test system: streptozotocin diabetic rats; experiment: Treatment of streptozotocin diabetic rats for 4 weeks; format: in vivo, Sprague-Dawley rats
# Protocol: FIG. 45. […] Prior to treatment the blood glucose levels taken every 2 days for 6 days prior to treatment are between 300-600 mg/dl. After randomization the average blood sugar level of each group are between 421 and 433 mg/dl. Rats were treated every 2 days subcutaneously. […] Non-fasting sugar levels taken every 2 days were added together to obtain area under the curve (AUC) for each animal to average out cyclical variability in each animal.
# FIG. 46. This is a graph showing the average body weight of streptozotocin diabetic rats at the end of the 4 week treatment period (+/−standard deviation; n=4) that started at 13th day after diabetes induction with 60 mg/kg streptozotocin. The starting weights of all animals prior to streptozotocin treatment are within 240 to 260 grams.
# FIG. 47. […] The islets were located and the number of BrDU positive nuclei in each islet was counted.
# Briefly for this in vivo protocol, 12-week old male Sprague-Dawley (HSD) rats (Harlan, Indianapolis, Ind.) were housed at 23±1° C. in a 12:12-h light:dark cycle, and were given access to food and water ad libitium (diet LM-485, Teklad, Madison, Wis.). […] Non-fasting blood sugar levels were monitored daily from day 2 by tail-tip snip blood collection (5 ul) and blood sugar levels were measured using Glucometer (Ascensia Elite, Bayer Co. Mishawaka, Ind.) and test strips (Bayer Co. Mishawaka, Ind.). […]
# DPP-8, sequence (Q6V1X1 whole entry): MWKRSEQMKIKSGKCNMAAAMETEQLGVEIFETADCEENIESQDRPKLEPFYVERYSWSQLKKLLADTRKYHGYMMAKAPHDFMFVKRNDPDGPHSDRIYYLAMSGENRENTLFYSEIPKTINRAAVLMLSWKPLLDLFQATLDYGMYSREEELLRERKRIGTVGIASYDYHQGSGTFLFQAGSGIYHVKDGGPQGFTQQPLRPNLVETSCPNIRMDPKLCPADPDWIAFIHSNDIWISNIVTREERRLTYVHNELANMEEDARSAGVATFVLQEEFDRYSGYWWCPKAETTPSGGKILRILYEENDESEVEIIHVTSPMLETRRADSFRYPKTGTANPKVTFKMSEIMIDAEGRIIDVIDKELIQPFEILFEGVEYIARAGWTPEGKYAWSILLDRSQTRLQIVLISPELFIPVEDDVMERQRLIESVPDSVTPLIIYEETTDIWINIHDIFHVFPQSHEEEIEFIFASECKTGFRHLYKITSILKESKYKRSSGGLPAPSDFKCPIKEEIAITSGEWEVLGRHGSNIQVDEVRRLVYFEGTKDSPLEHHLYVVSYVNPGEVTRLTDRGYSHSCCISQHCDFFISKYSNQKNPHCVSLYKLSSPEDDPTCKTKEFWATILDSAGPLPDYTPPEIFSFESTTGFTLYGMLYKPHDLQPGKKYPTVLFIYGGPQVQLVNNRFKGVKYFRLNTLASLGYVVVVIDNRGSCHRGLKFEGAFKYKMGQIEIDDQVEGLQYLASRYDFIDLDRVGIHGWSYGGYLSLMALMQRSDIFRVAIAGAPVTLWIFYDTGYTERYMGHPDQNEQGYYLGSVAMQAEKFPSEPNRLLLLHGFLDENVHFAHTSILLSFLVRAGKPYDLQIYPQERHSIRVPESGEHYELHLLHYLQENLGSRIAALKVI
compound,measurement,setting,value
native gastrin: native peptide hormone with short biological half-life,biological half-life,[1],few minutes
"N[C@@H](CC(=O)N1CCn2c(nnc2C(F)(F)F)C1)Cc1cc(F)c(F)cc1F [Sitagliptin, 7-[(3R)-3-amino-1-oxo-4-(2,4,5-trifluorophenyl)butyl]-5,6,7,8-tetrahydro-3-(trifluoromethyl)-1,2,4-triazolo[4,3-a]pyrazine phosphate (1:1) monohydrate]",inhibition of DPP-8 activity in vitro,[2],does not inhibit
same,inhibition of DPP-9 activity in vitro,[3],does not inhibit
COc1ccc2[nH]c([S+]([O-])Cc3ncc(C)c(OC)c3C)nc2c1 (stereo not drawn) [Omeprazole],LD50,[4],> 4000 mg/kg
"CC[C@H](C)[C@H](NC(=O)[C@H](Cc1ccccc1)NC(=O)[C@H](CCC(=O)O)NC(=O)[C@H](CCCCN)NC(=O)[C@H](C)NC(=O)[C@H](C)NC(=O)[C@H](CCC(N)=O)NC(=O)CNC(=O)[C@H](CCC(=O)O)NC(=O)[C@H](CC(C)C)NC(=O)[C@H](Cc1ccc(O)cc1)NC(=O)[C@H](CO)NC(=O)[C@H](CO)NC(=O)[C@@H](NC(=O)[C@H](CC(=O)O)NC(=O)[C@H](CO)NC(=O)[C@@H](NC(=O)[C@H](Cc1ccccc1)NC(=O)[C@@H](NC(=O)CNC(=O)[C@H](CCC(=O)O)NC(=O)[C@H](C)NC(=O)[C@@H](N)Cc1c[nH]cn1)[C@@H](C)O)[C@@H](C)O)C(C)C)C(=O)N[C@@H](C)C(=O)N[C@@H](Cc1c[nH]c2ccccc12)C(=O)N[C@@H](CC(C)C)C(=O)N[C@H](C(=O)N[C@@H](CCCCN)C(=O)NCC(=O)N[C@@H](CCCNC(=N)N)C(N)=O)C(C)C [GLP-1, GLP-1 (7-36 amide)]",BrdU positive nuclei (cell divisions) in the islets,"[5]; pancreas histology after 4 weeks, versus PBS or empty carrier",significantly more cell divisions
same,body weight at the end of the 4 week treatment,"[5]; s.c. every 2 days for 4 weeks, 20 ug GLP-1",greater variability in response
